We go through 20 compounds from patent US20240010641A1, “N-Linked Glycosylation Inhibitors and Methods of Using Same” (YALE UNIVERSITY, priority 2020, published 2024).

Type in all cases: cell-based
Test [1] deals with N-linked glycosylation (OST) in CHO-ER-LucT cells. As to the kind of experiment: CHO-ER-LucT luminescence assay for inhibition of N-linked glycosylation. The settings on record: for Emax: 24 h, [compound's fold change-1.0 (DMSO)]/[NGI-1 fold change-1.0 (DMSO)]*100, read-out: Max activity (% NGI-1); for AC50: CHO-ER-LucT cells, 24 hrs exposure, seven-point dose dilution, luminescence. As to the method: The CHO-ER-LucT cells have been previously described (Contessa et al., 2010, Clinical Cancer Research, 16(12):3205-14) and are used for testing analog IC50 for inhibition of N-linked glycosylation in 96 or 384 well plate format. In these cells induction of luminescence is dependent on inhibition of glycosylation (and OST inhibition), and is determined after 24 hrs of exposure to the analog following the addition of luciferin substrate. The luminescent signal is then quantified using standard plate readers that detect luminescence (e.g., Biotek synergy). Experiments are performed over a seven-point dose dilution to generate dose response data and to identify IC50 values and maximal activity compared to controls. Data is transformed to log 10 values to generate a sigmoidal shaped dose response curve and fitted using nonlinear regression (curve fit) in GraphPad Prism7.
All HL compounds were tested in CHO-ER-LucT cells. IC50 (AC50) was estimated in following method: Concentration X is converted to logarithm (log10) to generate sigmoidal shape curve and dose response curve is generated using Nonlinear regression (curve fit) in Prism. EC50 (AC50) is calculated using log(agonist) vs response-(three parameters)] which uses standard Hill slope (=1).
Max activity: [compound's fold change−1.0 (DMSO)]/[NGI−1 fold change−1.0 (DMSO)]*100(%) (Eq. 1)

For test [2], the system named is STT3A (HEK293 STT3B KO cells). As to the kind of experiment: Western blots of protein glycoforms, HEK293 cells with knockout of STT3B. The settings on record: 24 hrs, Western blot, FIG. 2, indicating enhanced specificity for STT3A. The procedure: FIG. 2 illustrates Western blots of protein glycoforms after OST inhibitor treatment in vitro using HEK293 cells with knockout (KO) of either STT3A or STT3B. Cells were treated with each inhibitor for 24 hrs at indicated concentrations. Changes in glycosylation are shown by reduced molecular weight.
(§1) Inhibition of glycosylation is then confirmed by analysis of glycoprotein size using western blots. Increased gel mobility of proteins such as the EGFR or Halo3N indicate loss of protein glycosylation (FIGS. 1-2).
Background: Immunoblotting shows a protein as a band on a membrane.

The subject of test [3] is protein glycosylation in HEK293 cells. The test is described as follows: Western blots of protein glycoforms after OST inhibitor treatment, HEK293 cells. The settings on record: 24 hrs, Western blot, FIG. 1. The procedure: FIG. 1 illustrates Western blots of protein glycoforms after OST inhibitor treatment in vitro. HEK293 cells were treated with each inhibitor for 24 hrs at indicated concentrations. Changes in glycosylation are shown by reduced molecular weight.
as §1

Test [4] deals with N-linked glycosylation in D54. As to the kind of experiment: ER-LucT type AC50 determination in D54 cells (NGI-1 only). The settings on record: Homo sapiens.

The AC50 is the midpoint of the concentration-response curve, whichever way the signal moves. Take `CCc1cnc(NC(=O)c2cc(S(=O)(=O)N3CCOCC3)ccc2N(C)CC2CC2)s1` [Example 3, 2-((cyclopropylmethyl)(methyl)amino)-N-(5-ethylthiazol-2-yl)-5-(morpholinosulfonyl)benzamide]: in test [1], the Emax turned out to be 215% and the AC50 came to 0.059 µM. Besides, the “Effect on glycosylation in STT3B KO cells” value in test [2] is reported as “more potent effect”. In test [3], the “Changes in glycosylation (reduced molecular weight of protein glycoforms)” value is on record as “more potent effect”.

Regarding `CCc1cnc(NC(=O)c2cc(S(=O)(=O)N3CCOCC3)ccc2N(C)C2CCCC2)s1` [Example 4, 2-(cyclopentyl(methyl)amino)-N-(5-ethylthiazol-2-yl)-5-(morpholinosulfonyl)benzamide], in test [1], the Emax was 206% and the AC50 turned out to be 0.087 µM. Further, the “Effect on glycosylation in STT3B KO cells” value in test [2] is recorded as “more potent effect”. For the same compound, the “Changes in glycosylation (reduced molecular weight of protein glycoforms)” value in test [3] is given as “more potent effect”.

In the case of `CCc1cnc(NC(=O)c2cc(S(=O)(=O)N(C)C)cnc2N(C)CC2CC2)s1` [Example 22, 2-((cyclopropylmethyl)(methyl)amino)-5-(N,N-dimethylsulfamoyl)-N-(5-ethylthiazol-2-yl)nicotinamide], in test [1], the Emax is 126% and the AC50 is 0.572 µM.

`Cc1nc(NC(=O)c2cc(S(=O)(=O)N(C)C)cnc2N(C)CC2CC2)sc1C` [Example 23, 2-((cyclopropylmethyl)(methyl)amino)-5-(N,N-dimethylsulfamoyl)-N-(4,5-dimethylthiazol-2-yl)nicotinamide]: in test [1], the Emax was 59% and the AC50 is 0.863 µM.

Take `CN(CC1CC1)c1ncc(S(=O)(=O)N(C)C)cc1C(=O)Nc1nc2c(s1)COCC2` [Example 24, 2-((cyclopropylmethyl)(methyl)amino)-N-(6,7-dihydro-4H-pyrano[4,3-d]thiazol-2-yl)-5-(N,N-dimethylsulfamoyl)nicotinamide]: in test [1], the Emax was determined as 43% and the AC50 turned out to be 17.3 µM.

With `CCc1cnc(NC(=O)c2cc(S(=O)(=O)N(C)C)cnc2N(C)C2CCCC2)s1` [Example 25, 2-(cyclopentyl(methyl)amino)-5-(N,N-dimethylsulfamoyl)-N-(5-ethylthiazol-2-yl)nicotinamide], in test [1], the Emax stood at 108% and the concentration at half-maximal activity (AC50) was determined as 0.309 µM.

For the compound `CCc1cnc(NC(=O)c2cc(S(=O)(=O)N3CCOCC3)cnc2N(C)CC2CC2)s1` [Example 26, 2-((cyclopropylmethyl)(methyl)amino)-N-(5-ethylthiazol-2-yl)-5-(morpholinosulfonyl)nicotinamide], in test [1], the Emax was found to be 104% and the AC50 stood at 0.851 µM.

Take `CCc1cnc(NC(=O)c2cc(S(=O)(=O)N3CCOCC3)nnc2N(C)CC2CC2)s1` [Example 27, 3-((cyclopropylmethyl)(methyl)amino)-N-(5-ethylthiazol-2-yl)-6-(morpholinosulfonyl)pyridazine-4-carboxamide]: in test [1], the Emax was 13.3% and the AC50 is 0.115 µM.

Turning to `CCc1cnc(NC(=O)c2nc(S(=O)(=O)N3CCOCC3)ccc2N(C)CC2CC2)s1` [Example 28, 3-((cyclopropylmethyl)(methyl)amino)-N-(5-ethylthiazol-2-yl)-6-(morpholinosulfonyl)picolinamide], in test [1], the Emax stood at 33.3% and the AC50 worked out at 7.92 µM.

Regarding `Cc1nc(NC(=O)c2cc(S(=O)(=O)N(C)C)cc(F)c2N2CCCC2)sc1C` [Example 29, 5-(N,N-dimethylsulfamoyl)-N-(4,5-dimethylthiazol-2-yl)-3-fluoro-2-(pyrrolidin-1-yl)benzamide], in test [1], the Emax came to 62.6% and the AC50 was determined as 4.99 µM.

For the compound `CCc1cnc(NC(=O)c2cc(S(=O)(=O)N3CCOCC3)c(F)cc2N(C)CC2CC2)s1` [Example 30, 2-((cyclopropylmethyl)(methyl)amino)-N-(5-ethylthiazol-2-yl)-4-fluoro-5-(morpholinosulfonyl)benzamide], in test [1], the Emax came out at 96.4% and the AC50 came out at 0.371 µM.

In the case of `Cc1nc(NC(=O)c2cc(S(=O)(=O)N3CCOCC3)c(F)cc2N(C)CC2CC2)sc1C` [Example 31, 2-((cyclopropylmethyl)(methyl)amino)-N-(4,5-dimethylthiazol-2-yl)-4-fluoro-5-(morpholinosulfonyl)benzamide], in test [1], the Emax turned out to be 61.2% and the AC50 was 0.431 µM.

As for `Cc1nc(NC(=O)c2cc(S(=O)(=O)N(C)C)c(F)cc2N2CCCC2)sc1C` [Example 32, 5-(N,N-dimethylsulfamoyl)-N-(4,5-dimethylthiazol-2-yl)-4-fluoro-2-(pyrrolidin-1-yl)benzamide], in test [1], the Emax came out at 52.6% and the AC50 is 3.84 µM.

As to `Cc1ccc(NC(=O)c2cc(S(=O)(=O)N(C)C)ccc2N2CCC(F)(F)C2)cc1` [Example 33, 2-(3,3-difluoropyrrolidin-1-yl)-5-(N,N-dimethylsulfamoyl)-N-(p-tolyl)benzamide], in test [1], the Emax worked out at 67.5% and the AC50 came to 5.84 µM.

As for `Cc1nc(NC(=O)c2cc(S(=O)(=O)N(C)C)ccc2N2CCC(F)(F)C2)sc1C` [Example 34, 2-(3,3-difluoropyrrolidin-1-yl)-5-(N,N-dimethylsulfamoyl)-N-(4,5-dimethylthiazol-2-yl)benzamide], in test [1], the Emax came to 76.9% and the AC50 was 0.738 µM.

Consider `Cc1csc(NC(=O)c2cc(S(=O)(=O)N(C)C)ccc2N2CCC(F)(F)C2)n1` [Example 35, 2-(3,3-difluoropyrrolidin-1-yl)-5-(N,N-dimethylsulfamoyl)-N-(4-methylthiazol-2-yl)benzamide], for which, in test [1], the Emax was 70% and the AC50 stood at 3 µM.

For the compound `CCc1cnc(NC(=O)c2cc(S(=O)(=O)N3CCOCC3)ccc2N2CCC(F)(F)C2)s1` [Example 36, 2-(3,3-difluoropyrrolidin-1-yl)-N-(5-ethylthiazol-2-yl)-5-(morpholinosulfonyl)benzamide], in test [1], the Emax came out at 137% and the AC50 is 0.591 µM.

Take `CCc1cnc(NC(=O)c2cc(S(=O)(=O)N(C)C)ccc2N2CCC(F)(F)C2)s1` [Example 37, 2-(3,3-difluoropyrrolidin-1-yl)-5-(N,N-dimethylsulfamoyl)-N-(5-ethylthiazol-2-yl)benzamide]: in test [1], the Emax turned out to be 126% and the AC50 was determined as 0.565 µM.

For the compound `Cc1nc(NC(=O)c2cc(S(=O)(=O)N3CCOCC3)ccc2N2CCC(F)(F)C2)sc1C` [Example 38, 2-(3,3-difluoropyrrolidin-1-yl)-N-(4,5-dimethylthiazol-2-yl)-5-(morpholinosulfonyl)benzamide], in test [1], the Emax worked out at 42.8% and the AC50 stood at 0.748 µM.

Consider `Cc1cnc(NC(=O)c2cc(S(=O)(=O)N(C)C)ccc2N2CCCC2)s1` [NGI-1, 5-(N,N-Dimethylsulfamoyl)-N-(5-methylthiazol-2-yl)-2-(pyrrolidin-1-yl)benzamide, reference compound], for which, in test [1], the Emax is 100% and the concentration at half-maximal activity (AC50) was 1.11 µM. Besides, in test [4], the AC50 was 0.712 µM.
